Read-outs that look alike come from different tables or passages of the source.
Experiments:
[1] = API particle size, static image analysis (Malvern Morphologi G3-ID); format: physicochemical; details: dry powder
Experimental: The micronized acetaminophen particle size distribution was obtained using the Malvern Morphologi G3-ID, which employs static image analysis to determine morphology. Powder samples of 7 mm^3 were obtained using a standard scoop, transferred to the attached dispersion unit (operated with 0.1 bar pressure and 60 second dispersion cycle) and analyzed at 20× magnification.
Particle morphology was determined in the same manner described in Example 33, but at a magnification of 5×.

[2] = API particle skeletal (true) density, helium gas pycnometry; format: physicochemical; details: mean of four powder samples, ambient about 22° C.
Experimental: The AccuPyc II 1340 Gas Displacement Pycnometry System (Micromeritics Instrument Corporation, Norcross, Ga.) was used to determine the skeletal density of the micronized acetaminophen powder. The AccuPyc II 1340 instrument determines the volume occupied by powder sample, and with knowledge of the sample mass (determined on a XS105 DualRange (Mettler Toledo, Switzerland)) the skeletal density is calculated; purge cycles function to clear the chamber of residual volatile species and occur prior to the measurement cycles. Helium gas was used as the measurement gas, and the following instrument specifications were used in each powder sample: 10 purges (purge fill pressure 19.5 psig), 10 cycles (cycle fill pressure 19.5 psig), pressure equilibration rate 0.0050 psig/min, 3.5 cm^3 cell volume. Performed at ambient conditions of 22° C. and 52% relative humidity, the density reported here corresponds to the mean value obtained from measurement of four powder samples. The density of micronized acetaminophen powder was determined to be 1.3285 g/cm^3.
(§1) Skeletal density was determined by the same procedure described in Example 31; testing was performed at ambient conditions of 22° C. and 51% relative humidity. The density reported here corresponds to the mean value obtained from measurement of four powder samples; the density of semi-fine acetaminophen powder was determined to be 1.3274 g/cm^3.
as §1, with “22.6°” for “22°”, “53%” for “51%”, “mefenamic acid” for “semi-fine acetaminophen”, “1.2706 g/cm^3” for “1.3274 g/cm^3.”

[3] = API powder bulk density, tapped density tester; format: physicochemical
Experimental: In order to determine the solid volume fractions under which the mixtures of the micronized acetaminophen powder and NEOBEE® 895 would flow as a suspension, bulk density measurements were taken using the 350 Tapped Density Tester (Agilent Technologies, Santa Clara, Calif.), housed in an acoustic cabinet. The test was performed in accordance with ASTM standard D7481-09 (equivalent to USP Method 1) using a 100 mL graduated cylinder with drop height of 14±2 mm at a rate of 300 drops per minute. The mass of the powder sample was determined on a MS8001S NewClassic MF (Mettler Toledo, Switzerland) resulting in a bulk density of 0.36 g/cm^3 after 6000 taps, measured at 21.9° C. and 40% relative humidity.
Bulk density was determined by the same procedure described in Example 32; testing was performed at 22.1° C. and 45% relative humidity.

[4] = Raman microscopy of dosage forms; format: physicochemical
Experimental: After deposition of the drops onto the film, the crystal structure of the mevastatin-PEG 3350 melt formulations were analyzed with a Raman RXN1 Microprobe (Kaiser Optical Systems, MI). First the spectra of pure mevastatin and PEG 3350 solid dispersions were obtained. Mevastatin and PEG 3350 powders were heated above their melting temperatures, to 152° C. and 60° C., respectively. The melts of pure mevastatin and pure PEG 3350 were solidified at room temperature and then analyzed to obtain the spectra of pure compounds. The spectra of the melt formulation consisting of 15% mevastatin and 85% PEG 3350 were obtained by analyzing the drops of the melt formulation deposited using the dropwise additive manufacturing process.
A Thermo Scientific DRX Raman Microscope equipped with a 532 nm laser is used to analyze the solid state form of the drug present in the melt formulations. First, the spectra of pure crystalline celecoxib and gelucire 44/14 solid dispersion are obtained. Pure celecoxib and pure gelucire 44/14 are analyzed to obtain the spectra of pure compounds. […]
The form of celecoxib in the dosage forms is analyzed with a Raman microscope to investigate the effect of gelucire on crystallization of celecoxib within the deposits.

[5] = 15% naproxen 85% PEG 3350 melt dosage forms

Compound	Sauter mean diameter [1]	d90 [1]	Skeletal (true) density [2]	Bulk density ([3]; after 6000 taps)	Physical form of the drug in the dosage forms (Raman) ([4]; 15% mevastatin 85% PEG 3350 melt dosage forms)	Physical form of the drug in the dosage forms (X-ray diffraction) [5]	Physical form of the drug in the dosage forms (X-ray diffraction) (15% naproxen 85% Pluronic F38 melt dosage forms)	Physical form of the drug in the dosage forms (Raman) [4, 5]	Bulk density ([3]; after 8000 taps)
Cc1cccc(Nc2ccccc2C(=O)O)c1C [mefenamic acid]	88.83 μm	400.5 μm	1.2706 g/mL	0.7423 g/mL					
CC[C@H](C)C(=O)O[C@H]1CCC=C2C=C[C@H](C)[C@H](CC[C@@H]3C[C@@H](O)CC(=O)O3)[C@H]21 [mevastatin]					crystalline				

Continued, values first:

Sauter mean diameter [1]	d90 [1]	Skeletal (true) density [2]	Bulk density ([3]; after 6000 taps)	Physical form of the drug in the dosage forms (Raman) ([4]; 15% mevastatin 85% PEG 3350 melt dosage forms)	Physical form of the drug in the dosage forms (X-ray diffraction) [5]	Physical form of the drug in the dosage forms (X-ray diffraction) (15% naproxen 85% Pluronic F38 melt dosage forms)	Physical form of the drug in the dosage forms (Raman) [4, 5]	Bulk density ([3]; after 8000 taps)	Compound
22.05 μm	75.29 μm	1.3285 g/mL	0.36 g/mL						CC(=O)Nc1ccc(O)cc1 [micronized acetaminophen, acetaminophen (paracetamol)]
					crystalline	crystalline	crystalline		COc1ccc2cc([C@H](C)C(=O)O)ccc2c1 [naproxen]
47.66 μm	208.8 μm	1.3274 g/mL						0.46 g/mL	CC(=O)Nc1ccc(O)cc1 [semi-fine acetaminophen, acetaminophen (paracetamol)]

— patent US12076444B2, “Methods and systems for depositing active ingredients on substrates” (Purdue Research Foundation, priority 2015, dated 2024)
